Reference: patent US20040019060A1, “Sigma receptor ligands and their medical uses” (priority 2000, published 2004)
Where a name gives a salt, the structure may show the parent alone. Read-outs that look alike come from different tables or passages of the source.

Legend:
[1] = system: endothelial cells; experiment: Endothelial cell proliferation assay (cell phosphatase activity); assay type: cell-based, human; settings: Homo sapiens, Endothelial cell
Procedure: (§1) HUVECS (human umbilical vein endothelial cells) obtained from TCS Biologicals were grown in TCS Biologicals Large Vessel Endothelial Cell Basal Medium (ZHM-2951) with supplement (ZHS-8945). This contains heparin, hydrocortisone, human EGF, human bFGF (concentrations not disclosed by the Company) with added 2% FCS, pH 7.4.
(§2) HMEC-1 (immortalised human microvascular endothelial cells) obtained from Dr Colin Porter, Chester Beatty Laboratories were grown in TCS Biologicals Microvascular Endothelial Cell Basal Medium (ZHM-2946) with supplement (ZHS-8947). This contains heparin, hydrocortisone, human EGF, human bFGF, dibutyryl cyclic AMP (concentrations not disclosed by the Company) with added 5% FCS, pH 7.4.
as §2, with “HDMECS (human dermal” for “HMEC-1 (immortalised human”, “TCS Biologicals” for “Dr Colin Porter, Chester Beatty Laboratories”
(§3) The cells were seeded at 2×10^4 ml in 96 well microtitre plates on day 0, and sigma ligands were added in fresh medium on day 1. […] PCS at the concentrations indicated was present throughout the assay. Each concentration of drug was assayed in triplicate, and the vehicle concentration was kept constant.
Viable cells present at the end of the assay were estimated by determining phosphatase activity as follows: 100Xl of paranitrophenylphosphate (Sigma) at 3 mg/ml in phosphate buffer pH 5.5 containing 0.1% Triton X100 was added to wells and incubated for 2hr at 37° C. The reaction was stopped with 1N NaOH. Released paranitrophenol, indicative of attached cell number, was measured by reading the absorbance at 405 nm in a Titertek multiscan. […] The 100% value is the mean absorbance of control wells treated with vehicle alone; the 0% value is that of wells containing medium only.

[2] = system: human microvascular endothelial cells (HMEC-1); experiment: Proliferation assay in HMEC-1 (phosphatase activity); assay type: cell-based; settings: 168 h, read-out: IC50 (dose required to inhibit proliferation to 50% of control), HMEC-1, FIG. 2a, assay on day 7
Procedure: as §2, §3
(§4) Viable cells present at the end of the assay were estimated by determining phosphatase activity as follows: 100Xl of paranitrophenylphosphate (Sigma) at 3 mg/ml in phosphate buffer pH 5.5 containing 0.1% Triton X100 was added to wells and incubated for 2hr at 37° C. The reaction was stopped with 1N NaOH. Released paranitrophenol, indicative of attached cell number, was measured by reading the absorbance at 405 nm in a Titertek multiscan. “Background” counts (which were very low) were subtracted, and the survival in drug treated wells compared with that of control wells. The 100% value is the mean absorbance of control wells treated with vehicle alone; the 0% value is that of wells containing medium only.

[3] = system: human vascular endothelial cells (HUVEC); experiment: Proliferation assay in HUVEC (phosphatase activity); assay type: cell-based; settings: 168 h, read-out: IC50 (dose required to inhibit proliferation to 50% of control), FIG. 2b, assay on day 7
Procedure: as §1, §3, §4

[4] = Pharmacokinetics in mice (LCMS of plasma, liver, spleen); assay type: in vivo, Balb/C mice
Procedure: Prior to undertaking any in vivo experiments with Rimcazole to study effects on tumour growth and angiogenesis, it was necessary to determine its pharmacokinetics in order that doses in the active range could be administered. Rimcazole (dissolved in water) was administered at 40 mg/kg i.p to Balb/C mice. Heparinised blood samples were taken at 5, 15 and 30 minutes, 1,2,4,6, and 24 hours and plasma separated. Tissue samples were also taken at some time points for analysis. Rimcazole samples were initially analysed by LCMS.
Column: Supelco 50×4.6 mm ABZ+ with 5 μ packing.
Mobile phase: A=HPLC grade methanol, B=0.1% formic acid in water.
Full scan mode: mass range analysed 50 to 850 amu.
MSMS mode: filtered ions were 322 (Rimcazole), 338 (Rimcazole+oxygen), and 514 (glucuronide of 338 metabolite).

[5] = system: sponge angiogenesis; experiment: Mouse sponge angiogenesis model (triple radiotracer); assay type: in vivo, Balb/C mice; settings: 30 mg/kg i.p. daily, all time points, FIG. 7a
Excerpt: (§5) In order to study neoangiogenesis in the absence of tumours, sterile polyether sponges were implanted into animals. This technique, developed in Cambridge, has been widely used to study angiogenesis. We have employed a triple radiotracer technique to study different aspects of the angiogenic process.
Balb/C mice were implanted bilaterally s.c. with sterile 7 mm diameter polyether sponges on days -5, -12 and -16 days prior to termination (5-6 mice per group). The mice were given Lugol's solution (KI) for 3 days prior to injection of radionuclides to prevent uptake of iodine in the thyroid. 24 hours before termination, the mice were injected i.v with […] [131-I] 5′-iodo-2′-deoxyuridine (IudR). One hour prior to termination the mice were injected with 2 XCi 2-deoxy-D-(1-[H3]glucose (DG) and 2 minutes prior to termination 2XCi [Tc-99m]-exametazine (HMPAO).
The IudR uptake reflects cell proliferation (primarily endothelial cells and also a small proportion of the inflammatory cells which provide the angiogenic growth factors); the DG measures cellular glucose metabolism, and the HMPAO gives a measure of blood flow. All can be taken as separate indices of the degree of vascularisation of the sponge implants. Mice were treated i.p. daily with Rimcazole (30 mg/kg) from the day of sponge implantation, or vehicle alone.

[6] = system: sponge angiogenesis; experiment: Rat sponge angiogenesis model (125I albumin vascular volume); assay type: in vivo, CBH/cbi rats
Procedure: as §5
CBH/cbi rats were implanted s.c. with sterile 13 mm diameter sponges as above. They were treated i.p. with Rimcazole (30 mg/kg/day) for 14 days from day 0. Five minutes before termination, they were injected with ^125I labelled rat albumin (a macromolecule which, in the short term remains intravascular). The amount of radioiodine in the sponges is an index of vascular volume.

[7] = system: human adult dermal fibroblasts; experiment: MTS cell viability/proliferation assay, dermal fibroblasts; assay type: cell-based
Excerpt: (§6) (Tissue in all cases was from healthy donors). […] Primary cell types included:
(§7) Cell density was checked microscopically at time zero.

[8] = system: Human mammary epithelial cells; experiment: MTS cell viability/proliferation assay, mammary epithelial cells; assay type: cell-based; settings: 10 micromolar, up to 48 hours, FIG. 9
Excerpt: as §6
Human mammary epithelial cells (catalogue number CC-2551; stain positive for cytokeratins 14, 18 and 19).
as §7

[9] = target: sigma-1 sites (Homo sapiens, UniProt Q99720); settings: Abou-Gharbia et al 1993; cited from earlier work
sigma-1 sites, sequence (Q99720 whole entry): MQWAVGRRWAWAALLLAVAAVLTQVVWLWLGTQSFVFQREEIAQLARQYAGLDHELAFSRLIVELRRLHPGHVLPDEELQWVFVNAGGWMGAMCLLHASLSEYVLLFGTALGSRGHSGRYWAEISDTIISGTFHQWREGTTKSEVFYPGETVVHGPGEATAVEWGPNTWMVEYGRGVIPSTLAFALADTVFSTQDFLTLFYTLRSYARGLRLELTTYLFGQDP

[10] = system: Human adult dermal microvascular endothelial cells; experiment: MTS cell viability/proliferation assay, microvascular endothelial cells; settings: Homo sapiens, Endothelial cell

C[C@@H]1CN(CCCn2c3ccccc3c3ccccc32)C[C@H](C)N1 [Rimcazole, cis-9-[3,5-dimethyl-1-piperazinyl) propyl]carbazole dihydrochloride]
activity at 4 µM ([1]; 4 μM Rimcazole, read-out: Endothelial cell proliferation, % of control cells): < 50% | IC50 ([1]; concentration of drug required to inhibit survival and/or proliferation by 50%, read-out: Antagonists: IC50): 5 µM | IC50 [2]: < 5 µM | IC50 [3]: < 5 µM | Tissue levels relative to plasma ([4]; Rimcazole 40 mg/kg i.p., mice, spleen and liver): higher in spleen and liver than in plasma | Plasma levels relative to IC50 ([4]; once daily dosing at 40 mg/kg): plasma levels above the IC50 for a significant period | Cell proliferation (IUdR), cellular metabolism (DG) and blood flow (HMPAO) in sponge implants [5]: reduction | Vascular volume of normal organs (liver and kidney) ([6]; 30 mg/kg/day for 14 days): unaffected | Neoangiogenesis in sponges (vascular volume, radiolabelled albumin) ([6]; 30 mg/kg/day for 14 days after implantation, FIG. 7b): reduced | Survival and proliferation (MTS) ([7]; 10 micromolar, up to 48 hours, FIG. 9): continued to proliferate vigorously | Tolerance of fibroblasts over a range of concentrations (MTS) ([7]; 100 micromolar to 1 nanomolar, FIG. 10): remarkably resistant | Survival and proliferation (MTS) [8]: continued to proliferate vigorously | selectivity for sigma-1 compared to sigma-2 sites [9]: approximately 5 fold | cytotoxicity at 10 µM ([10]; read-out: Reduction in viability): ~80% | cytotoxicity at 10 µM ([10]; read-out: Reduction in viable cell numbers compared to baseline values): 60 to 80%
